In patent publication US20230042599A1, “CELLULOSIC COMPOUNDS AND AGRICULTURAL USES THEREOF” (HELIAE DEVELOPMENT, LLC, priority 2021, published 2023):

Experiments:
[1] = test system: co-culture of Gram-negative Kosakonia pseudosacchari strain JM-387 and Pseudomonas aylmerense strain S1E40; assay: Desiccation resistance (viability, CFU) of a bacterial co-culture mixed with protectant agents; format: cell-based; details: after 3, 5 and 7 days of desiccation stress, protectants at 1% (whole broth and cell pellet undiluted)
[2] = test system: rifampicin-resistant strain of a Gram-negative Kosakonia sp. bacterium; assay: Desiccation resistance (viability, CFU) of Kosakonia sp. cells mixed with protectant agents and dried in 96-well plates; format: cell-based; details: after 5 days and 7 days of desiccation stress; protectants at 1% or 0.5% (whole broth and cell pellet undiluted or 2x dilution)
From the text: A rifampicin-resistant strain of a Gram-negative Kosakonia sp. bacterium was mixed with water (untreated control or “UTC”), trehalose, carboxymethylcellulose (“CMC”), methylcellulose (“MC”), extracellular polymeric substance from Parachlorella kessleri Accession No. NCMA 202103001 (“EPS”), sodium alginate (“Na-Alginate”), Parachlorella kessleri Accession No. NCMA 202103001 whole broth (“3001 Broth”), or Parachlorella kessleri Accession No. NCMA 202103001 cell pellet after centrifugation (“3001 Pellet”) in 96-well plates. Each of the protectant agents was added undiluted (i.e., at a 1× dilution) or at a 2× dilution (i.e., at […] to 1 part protectant) for whole broth and cell pellets or at a concentration of 1% (i.e., 1 g/100 mL) or 0.5% (i.e., 0.5 g/100 mL) for all other protectants. […]
The liquid medium in the plates was allowed to dry at room temperature inside a desiccation chamber for several days to create desiccation stress in the bacterial cell cultures. […] The bacterial cells were evaluated for survival and growth after 5 days of desiccation stress and after 7 days of desiccation stress.
The colony forming unit (CFU) data in these figures were generated by counting the number of colonies on each spot (see spots on representative plates shown in FIGS. 2A, 2B, and 2C) and using the following formula for quantifying viable cell density: […]

SMILES: OC[C@H]1O[C@H](O[C@H]2O[C@H](CO)[C@@H](O)[C@H](O)[C@H]2O)[C@H](O)[C@@H](O)[C@@H]1O [Trehalose]
- protective effect on the Gram-negative bacterial cells (viability after desiccation stress) [1]: demonstrated a protective effect
- protective effect on the Kosakonia sp. cells (viability after desiccation stress) [2]: demonstrated a protective effect
